Reference: PubChem BioAssay AID248 (DTP/NCI, 2004)
“And” between values parts separate entries of the source, which are not always exact repeats. Identical values can stand only once. Toxic doses and inconclusive results are not listed. Rule as the data show it: active = T/C of 150% or more; inactive = T/C below 125%.

System: L1210 leukemia ip in BDF1 mice, survival T/C
Test: NCI In Vivo Anticancer Drug Screen. Data for tumor model L1210 Leukemia (intraperitoneal) in B6D2F1 (BDF1) mice
Conditions: endpoint: mean survival time, higher = longer survival
Method in brief: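 Tumor cells were implanted, animals were treated, and survival was followed. The result divides the treated measurement by the vehicle-control measurement.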

[1] = dose: 100.0 mg/kg/injection, schedule: Q04DX003 (ip), vehicle: Klucel (hydroxypropylcellulose) (HPC)
[2] = dose: 200.0 mg/kg/injection, schedule: Q01DX009 (ip), vehicle: Klucel (hydroxypropylcellulose) (HPC)
[3] = dose: 200.0 mg/kg/injection, schedule: Q04DX003 (ip), vehicle: Klucel (hydroxypropylcellulose) (HPC)
[4] = dose: 400.0 mg/kg/injection, schedule: Q01DX009 (ip), vehicle: Klucel (hydroxypropylcellulose) (HPC)
[5] = dose: 400.0 mg/kg/injection, schedule: Q04DX003 (ip), vehicle: Klucel (hydroxypropylcellulose) (HPC)
[6] = dose: 100.0 mg/kg/injection, schedule: Q04DX003 (ip), vehicle: gum acacia
[7] = dose: 100.0 mg/kg/injection, schedule: Q01DX009 (ip), vehicle: Klucel (hydroxypropylcellulose) (HPC)
[8] = dose: 100.0 mg/kg/injection, schedule: Q04DX003 (ip), vehicle: saline with Tween-80
[9] = dose: 200.0 mg/kg/injection, schedule: Q04DX003 (ip), vehicle: saline with Tween-80
[10] = dose: 400.0 mg/kg/injection, schedule: Q04DX003 (ip), vehicle: saline with Tween-80
[11] = dose: 100.0 mg/kg/injection, schedule: Q01DX001 (ip), vehicle: saline
[12] = dose: 200.0 mg/kg/injection, schedule: Q01DX001 (ip), vehicle: saline
[13] = dose: 400.0 mg/kg/injection, schedule: Q01DX001 (ip), vehicle: saline

Measured: T/C

O=C(O)c1cccc(F)c1.[Ni]
inactive: dose: 25.0 mg/kg/injection, schedule: Q04DX002 (ip), vehicle: gum acacia 100 % of control | dose: 50.0 mg/kg/injection, schedule: Q04DX002 (ip), vehicle: gum acacia 103 % of control | dose: 100.0 mg/kg/injection, schedule: Q04DX002 (ip), vehicle: gum acacia 117 % of control

COC(=O)c1ccccc1N=NNc1ccc(-c2nc(N)nc(N)n2)cc1
inactive: [1] 100 % of control | [2] 100 % of control | [3] 94 % of control | [4] 100 % of control | [5] 95 % of control

O=c1oc2ccccc2c(O)c1C(c1ccc2c(c1)CCC2)c1c(O)c2ccccc2oc1=O
inactive: [1] 92 % of control | [3] 100 % of control | [5] 92 % of control

O=C(Nc1cccc([N+](=O)[O-])c1)c1ccc(Cl)cc1
inactive: [6] 101 % of control | dose: 200.0 mg/kg/injection, schedule: Q04DX003 (ip), vehicle: gum acacia 95 % of control | dose: 400.0 mg/kg/injection, schedule: Q04DX003 (ip), vehicle: gum acacia 101 % of control

O=[N+]([O-])c1ccc2c(c1)-c1[nH]c3ccccc3c1CS2
inactive: dose: 100.0 mg/kg/injection, schedule: Q01DX001 (ip), vehicle: acetone 100 % of control | dose: 200.0 mg/kg/injection, schedule: Q01DX001 (ip), vehicle: acetone 92 % of control | dose: 400.0 mg/kg/injection, schedule: Q01DX001 (ip), vehicle: acetone 92 % of control

O=C(O)C(O)(Cc1ccccc1)C(=O)C(O)C(O)CO (configuration not stated)
inactive: dose: 50.0 mg/kg/injection, schedule: Q04DX002 (ip), vehicle: saline 87 % of control | dose: 100.0 mg/kg/injection, schedule: Q04DX002 (ip), vehicle: saline 106 % of control | dose: 200.0 mg/kg/injection, schedule: Q04DX002 (ip), vehicle: saline 91 % of control

CCCCOC(=O)c1ccc(OC(=O)NC(C)(C)C)cc1
inactive: dose: 25.0 mg/kg/injection, schedule: Q04DX003 (ip), vehicle: gum acacia 102 % of control and 90 % of control | dose: 50.0 mg/kg/injection, schedule: Q04DX003 (ip), vehicle: gum acacia 94 % of control and 102 % of control | dose: 100.0 mg/kg/injection, schedule: Q01DX001 (ip), vehicle: gum acacia 105 % of control | [6] 98 % of control and 100 % of control | dose: 200.0 mg/kg/injection, schedule: Q01DX001 (ip), vehicle: gum acacia 95 % of control | dose: 400.0 mg/kg/injection, schedule: Q01DX001 (ip), vehicle: gum acacia 103 % of control

C(=N\N(c1ccccc1)c1ccccc1)/c1ccc(/C=N/N(c2ccccc2)c2ccccc2)cc1
inactive: [7] 92 % of control | [2] 90 % of control | [4] 96 % of control

O[Si](c1ccccc1)(c1ccccc1)c1ccccc1
inactive: dose: 100.0 mg/kg/injection, schedule: Q01DX009 (ip), vehicle: saline with Tween-80 95 % of control | dose: 100.0 mg/kg/injection, schedule: Q04DX002 (ip), vehicle: saline with Tween-80 100 % of control | dose: 200.0 mg/kg/injection, schedule: Q01DX009 (ip), vehicle: saline with Tween-80 88 % of control | dose: 200.0 mg/kg/injection, schedule: Q04DX002 (ip), vehicle: saline with Tween-80 96 % of control | dose: 400.0 mg/kg/injection, schedule: Q01DX009 (ip), vehicle: saline with Tween-80 91 % of control | dose: 400.0 mg/kg/injection, schedule: Q04DX002 (ip), vehicle: saline with Tween-80 87 % of control

COc1cc([N+](=O)[O-])ccc1NC(=O)Oc1ccc(-c2ccccc2)cc1
inactive: [7] 95 % of control | [2] 95 % of control | [4] 98 % of control

Cc1oncc1/C=C/c1ccon1
inactive: dose: 100.0 mg/kg/injection, schedule: Q04DX003 (ip), vehicle: other 96 % of control | dose: 200.0 mg/kg/injection, schedule: Q04DX003 (ip), vehicle: other 91 % of control

O=C(NO)c1cc(=O)[nH]o1
inactive: [8] 95 % of control | [9] 95 % of control | [10] 95 % of control

CCCCCCCCCC(=O)CCCCCCC
inactive: dose: 25.0 mg/kg/injection, schedule: Q01DX009 (ip), vehicle: other 105 % of control | dose: 50.0 mg/kg/injection, schedule: Q01DX009 (ip), vehicle: other 102 % of control | dose: 100.0 mg/kg/injection, schedule: Q01DX009 (ip), vehicle: other 95 % of control and 97 % of control | dose: 400.0 mg/kg/injection, schedule: Q01DX009 (ip), vehicle: other 98 % of control

Fc1c(F)c(F)[c]([Sn]([c]2ccccc2)([c]2ccccc2)[c]2ccccc2)c(F)c1F
inactive: dose: 1.56 mg/kg/injection, schedule: Q01DX009 (ip), vehicle: saline with Tween-80 102 % of control | dose: 3.13 mg/kg/injection, schedule: Q01DX009 (ip), vehicle: saline with Tween-80 94 % of control | dose: 6.25 mg/kg/injection, schedule: Q01DX009 (ip), vehicle: saline with Tween-80 92 % of control

Oc1c(CN2CCCC2)cc(Nc2nc(/C=C/c3ccc(Cl)cc3)nc(Cl)c2-c2ccc(Cl)cc2)cc1CN1CCCC1
inactive: dose: 75.0 mg/kg/injection, schedule: Q01DX001 (ip), vehicle: saline 96 % of control | dose: 75.0 mg/kg/injection, schedule: Q04DX003 (ip), vehicle: Klucel (hydroxypropylcellulose) (HPC) 98 % of control | dose: 150.0 mg/kg/injection, schedule: Q01DX001 (ip), vehicle: saline 96 % of control | dose: 150.0 mg/kg/injection, schedule: Q04DX003 (ip), vehicle: Klucel (hydroxypropylcellulose) (HPC) 91 % of control | dose: 300.0 mg/kg/injection, schedule: Q01DX001 (ip), vehicle: saline 93 % of control | dose: 300.0 mg/kg/injection, schedule: Q04DX003 (ip), vehicle: Klucel (hydroxypropylcellulose) (HPC) 91 % of control

NCC1OC(n2cnc3c(N)ncnc32)CC1O (configuration not stated)
inactive: dose: 50.0 mg/kg/injection, schedule: Q01DX001 (ip), vehicle: carboxymethylcellulose (CMC) 107 % of control | dose: 100.0 mg/kg/injection, schedule: Q01DX001 (ip), vehicle: carboxymethylcellulose (CMC) 107 % of control | dose: 200.0 mg/kg/injection, schedule: Q01DX001 (ip), vehicle: carboxymethylcellulose (CMC) 109 % of control | dose: 400.0 mg/kg/injection, schedule: Q01DX001 (ip), vehicle: carboxymethylcellulose (CMC) 104 % of control

O=C1OCC2Cc3cc4c(cc3C(c3ccc5c(c3)OCO5)=C12)OCO4 (configuration not stated)
inactive: [11] 98 % of control | [12] 109 % of control | [13] 95 % of control

Nc1cc(C(=O)O)[nH]c(=S)n1
inactive: dose: 100.0 mg/kg/injection, schedule: Q01DX Z (ip), vehicle: methylcellulose (MC) 100 % of control | dose: 200.0 mg/kg/injection, schedule: Q01DX Z (ip), vehicle: methylcellulose (MC) 100 % of control

NC(=S)N/N=C/c1ccc2ccccc2c1
inactive: dose: 50.0 mg/kg/injection, schedule: Q01DX001 (ip), vehicle: saline 107 % of control | [11] 107 % of control | [12] 107 % of control | [13] 116 % of control

COc1ccc(-n2c(=S)[nH]c3ccc(C)cc3c2=O)cc1
inactive: [8] 92 % of control | [9] 87 % of control | [10] 90 % of control
